Measurements reported in article PMC4187893, “Biochemical and Antiparasitic Properties of Inhibitors of the Plasmodium falciparum Calcium-Dependent Protein Kinase PfCDPK1” (Antimicrobial Agents and Chemotherapy, 2014).
pEC50, pIC50: −log10 of the molar value. Where two headings read alike, the source gives them in different places.

How the values were obtained:
PbCDPK1 = PbCDPK1 (Plasmodium berghei, UniProt A0A509AHB6); test: Rh-ParM ADP sensor IC50 assay, PbCDPK1; conditions: for pIC50: read-out: IC50 PbCDPK1, Rh-ParM, absence of MTIP, mean (SD)
PvCDPK1 = PvCDPK1 (Plasmodium vivax, UniProt A5KBU9); test: Rh-ParM ADP sensor IC50 assay, PvCDPK1; conditions: for pIC50: read-out: IC50 PvCDPK1, Rh-ParM, absence of MTIP, mean (SD)
PfCDPK1 [1] = target: T1, PfCDPK1 (Plasmodium falciparum, UniProt P62344); conditions: absence of MTIP; for pIC50: mean (SD), n = 2
PfCDPK1 [2] = target: T1, PfCDPK1; test: Radiometric assay, incorporation of 33P into MTIP; conditions: for IC50 ratio (ATP depletion/radiometric assay): Kinase-Glo Plus IC50 / radiometric IC50; for pIC50: read-out: IC50 Radiometric assay, ATP and MTIP at their respective Km values
PfCDPK1 [3] = target: T1, PfCDPK1; test: Kinase-Glo Plus ATP depletion assay; conditions: read-out: IC50 ATP depletion, ATP and MTIP at their respective Km values
[4] = set-up: method as in PMID 24689770; conditions: cited from earlier work
P. falciparum 3D7 = test: FACS assay for parasite growth; conditions: Plasmodium falciparum, 3D7, 48 h, read-out: mean EC50, positive controls in parasite growth assay
[5] = read-out: IC50 PfCDPK1, Rh-ParM, ATP at Km
[6] = read-out: IC50 With 30 μM ATP, 30 μM ATP, Rh-ParM ADP detection
[7] = read-out: IC50 With 1 mM ATP, 1 mM ATP, Rh-ParM ADP detection

T1 sequence (P62344 whole entry): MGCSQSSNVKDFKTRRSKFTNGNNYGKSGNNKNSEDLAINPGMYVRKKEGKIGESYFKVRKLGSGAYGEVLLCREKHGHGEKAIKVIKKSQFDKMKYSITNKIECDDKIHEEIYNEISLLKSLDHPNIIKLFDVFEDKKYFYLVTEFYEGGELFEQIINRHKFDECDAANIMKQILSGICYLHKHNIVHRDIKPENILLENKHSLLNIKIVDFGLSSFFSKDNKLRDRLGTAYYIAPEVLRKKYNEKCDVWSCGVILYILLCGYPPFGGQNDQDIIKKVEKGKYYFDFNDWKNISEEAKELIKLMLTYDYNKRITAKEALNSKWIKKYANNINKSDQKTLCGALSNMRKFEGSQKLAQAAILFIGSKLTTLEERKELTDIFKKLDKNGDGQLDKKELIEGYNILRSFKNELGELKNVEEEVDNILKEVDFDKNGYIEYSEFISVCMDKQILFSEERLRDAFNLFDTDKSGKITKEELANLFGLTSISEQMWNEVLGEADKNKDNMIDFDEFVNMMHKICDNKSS
PbCDPK1, sequence (A0A509AHB6 whole entry): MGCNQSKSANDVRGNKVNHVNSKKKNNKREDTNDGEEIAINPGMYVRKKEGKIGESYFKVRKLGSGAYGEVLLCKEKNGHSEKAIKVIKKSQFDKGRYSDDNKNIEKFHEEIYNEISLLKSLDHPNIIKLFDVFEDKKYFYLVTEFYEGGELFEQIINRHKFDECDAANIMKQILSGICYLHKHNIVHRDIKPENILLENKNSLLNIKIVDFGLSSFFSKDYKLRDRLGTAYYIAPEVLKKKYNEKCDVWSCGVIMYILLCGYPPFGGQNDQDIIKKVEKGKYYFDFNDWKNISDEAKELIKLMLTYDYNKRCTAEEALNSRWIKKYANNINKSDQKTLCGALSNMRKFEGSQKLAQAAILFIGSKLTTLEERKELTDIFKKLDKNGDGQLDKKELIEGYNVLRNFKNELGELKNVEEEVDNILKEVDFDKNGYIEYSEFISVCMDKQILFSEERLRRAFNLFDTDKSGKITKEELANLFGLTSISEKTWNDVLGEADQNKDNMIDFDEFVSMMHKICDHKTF
PvCDPK1, sequence (A5KBU9 entry or part of it): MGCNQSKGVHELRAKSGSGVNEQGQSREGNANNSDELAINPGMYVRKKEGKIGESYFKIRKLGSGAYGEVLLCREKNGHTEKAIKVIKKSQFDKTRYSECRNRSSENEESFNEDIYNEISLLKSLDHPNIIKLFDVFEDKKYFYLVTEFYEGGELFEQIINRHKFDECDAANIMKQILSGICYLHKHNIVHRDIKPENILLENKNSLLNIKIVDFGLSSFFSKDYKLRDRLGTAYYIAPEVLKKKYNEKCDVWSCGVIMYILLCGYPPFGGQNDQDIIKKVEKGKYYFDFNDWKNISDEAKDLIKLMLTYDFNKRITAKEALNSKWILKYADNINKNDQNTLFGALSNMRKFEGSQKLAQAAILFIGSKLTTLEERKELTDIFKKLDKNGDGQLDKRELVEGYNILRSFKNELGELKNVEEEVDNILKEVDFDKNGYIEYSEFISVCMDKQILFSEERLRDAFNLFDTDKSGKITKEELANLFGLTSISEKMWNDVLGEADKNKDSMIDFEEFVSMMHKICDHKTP

Fc1cccnc1Nc1ncc(-c2cnc3ccc(NC4CCC(N5CCNCC5)CC4)nn23)cn1 (centres unmarked) [Compound 46]
IC50 ratio PbCDPK1/PfCDPK1 (PbCDPK1): 2.8 | pIC50 (PbCDPK1; ATP at Km, n = 2): 7.42 | IC50 ratio PvCDPK1/PfCDPK1 (PvCDPK1): 0.8 | pIC50 (PvCDPK1; ATP at Km, n = 2): 7.96 | pIC50 (PfCDPK1 [1]; [5]): 7.89

c1cncc(CCNc2ccc3ncc(-c4ccc5c(c4)OCO5)n3n2)c1 [Compound 50]
IC50 ratio (ATP depletion/radiometric assay) (PfCDPK1 [2]): 4.1 | pIC50 (PfCDPK1 [2]): 8.00 | pIC50 (PfCDPK1 [3]): 7.39

c1ccc(-n2cc(-c3cnc4ccc(NC5CCNCC5)nn34)cn2)cc1 [Compound 44]
IC50 ratio PbCDPK1/PfCDPK1 (PbCDPK1): 4.3 | pIC50 (PbCDPK1; ATP at Km, n = 2): 6.33 | IC50 ratio PvCDPK1/PfCDPK1 (PvCDPK1): 0.6 | pIC50 (PvCDPK1; ATP at Km, n = 2): 7.23 | pIC50 (PfCDPK1 [1]; [5]): 6.97

CC(C)CNc1ncc(-c2cnc3ccc(NC4CCC(N)CC4)nn23)cn1 (centres unmarked) [Compound 29]
IC50 ratio PbCDPK1/PfCDPK1 (PbCDPK1): 4.6 | pIC50 (PbCDPK1; ATP at Km, n = 2): 6.41 | IC50 ratio PvCDPK1/PfCDPK1 (PvCDPK1): 0.9 | pIC50 (PvCDPK1; ATP at Km, n = 2): 7.10 | pIC50 (PfCDPK1 [1]; [5]): 7.07

N#Cc1cccc(-c2cnn3ccc(NCCc4cccnc4)nc23)c1 [Compound 13]
IC50 ratio (IC50 with 1 mM ATP/IC50 with 30 μM ATP) (PfCDPK1 [1]; Rh-ParM): 17 | pIC50 (PfCDPK1 [1]; [6]): 6.67 | pIC50 (PfCDPK1 [1]; [7]): 5.45

Cc1c(C(=O)N(C)C2CCCCC2)noc1COc1ccc(-n2cncn2)cc1 [Compound 21]
IC50 ratio (IC50 with 1 mM ATP/IC50 with 30 μM ATP) (PfCDPK1 [1]; Rh-ParM): 41 | pIC50 (PfCDPK1 [1]; [6]): 6.84 | pIC50 (PfCDPK1 [1]; [7]): 5.23

CC(C)CCNc1ncc(-c2cnn3ccc(NC4CCN(C)C4)nc23)cn1 (centres unmarked) [Compound 42]
IC50 ratio PbCDPK1/PfCDPK1 (PbCDPK1): 3.2 | pIC50 (PbCDPK1; ATP at Km, n = 2): 6.46 | IC50 ratio PvCDPK1/PfCDPK1 (PvCDPK1): 0.9 | pIC50 (PvCDPK1; ATP at Km, n = 2): 7.00 | pIC50 (PfCDPK1 [1]; [5]): 6.96

O=C(NCc1ccccc1)c1ccc(-c2cnc3ccc(NCCc4cccnc4)nn23)cc1 [Compound 47]
IC50 ratio (ATP depletion/radiometric assay) (PfCDPK1 [2]): 3.9 | pIC50 (PfCDPK1 [2]): 8.15 | pIC50 (PfCDPK1 [3]): 7.57

CN(C)C1CCN(c2ccc3ncc(-c4cnc(Nc5ncccc5F)nc4)n3n2)C1 (centres unmarked) [Compound 45]
IC50 ratio PbCDPK1/PfCDPK1 (PbCDPK1): 3.0 | pIC50 (PbCDPK1; ATP at Km, n = 2): 7.24 | IC50 ratio PvCDPK1/PfCDPK1 (PvCDPK1): 1.0 | pIC50 (PvCDPK1; ATP at Km, n = 2): 7.72 | pIC50 (PfCDPK1 [1]; [5]): 7.72

Fc1cccnc1Nc1ccc(-c2cnc3ccc(NC4CCC(N5CCCC5)CC4)nn23)cc1 (centres unmarked) [Compound 5]
mlogD [4]: 3.3

CN(C(=O)c1cc(COc2ccc(-n3cncn3)cc2)on1)C1CCCCC1 [Compound 19]
IC50 ratio (IC50 with 1 mM ATP/IC50 with 30 μM ATP) (PfCDPK1 [1]; Rh-ParM): 336 | pIC50 (PfCDPK1 [1]; [6]): 7.14 | pIC50 (PfCDPK1 [1]; [7]): 4.62

CC(C)CCNc1cc(-c2cnc3ccc(NC4CCN(C)CC4)nn23)ccn1 [Compound 27]
IC50 ratio PbCDPK1/PfCDPK1 (PbCDPK1): 3.5 | pIC50 (PbCDPK1; ATP at Km, n = 2): 6.32 | IC50 ratio PvCDPK1/PfCDPK1 (PvCDPK1): 0.5 | pIC50 (PvCDPK1; ATP at Km, n = 2): 7.17 | pIC50 (PfCDPK1 [1]; [5]): 6.86

C[C@@H]1CC[C@H]2[C@@H](C)C(=O)O[C@@H]3O[C@@]4(C)CC[C@@H]1[C@]32OO4 [artemisinin, reference compound]
pEC50 (P. falciparum 3D7): 7.89

O=C(NCc1ccc(N2CCCC2)cc1)c1ccc(-n2cnc3cccnc32)cc1 [Compound 16]
IC50 ratio (IC50 with 1 mM ATP/IC50 with 30 μM ATP) (PfCDPK1 [1]; Rh-ParM): 39 | pIC50 (PfCDPK1 [1]; [6]): 7.11 | pIC50 (PfCDPK1 [1]; [7]): 5.53

CC(=O)Nc1cccc(-c2cnc3ccc(NCCc4ccccn4)nn23)c1 [Compound 10]
IC50 ratio (ATP depletion/radiometric assay) (PfCDPK1 [2]): 2.7 | pIC50 (PfCDPK1 [2]): 7.62 | pIC50 (PfCDPK1 [3]): 7.19 | IC50 ratio (IC50 with 1 mM ATP/IC50 with 30 μM ATP) (PfCDPK1 [1]; Rh-ParM): 27 | pIC50 (PfCDPK1 [1]; [6]): 7.19 | pIC50 (PfCDPK1 [1]; [7]): 5.77

CCc1nc(N)nc(N)c1-c1ccc(Cl)cc1 [Pyrimethamine, reference compound]
pEC50 (P. falciparum 3D7): 8.10

NC(=O)c1ccc(-c2cnn3ccc(NCCc4cccnc4)nc23)cc1 [Compound 15]
IC50 ratio (ATP depletion/radiometric assay) (PfCDPK1 [2]): 2.7 | pIC50 (PfCDPK1 [2]): 7.92 | pIC50 (PfCDPK1 [3]): 7.49 | IC50 ratio (IC50 with 1 mM ATP/IC50 with 30 μM ATP) (PfCDPK1 [1]; Rh-ParM): 12 | pIC50 (PfCDPK1 [1]; [6]): 7.64 | pIC50 (PfCDPK1 [1]; [7]): 6.57

CN1CCC(Nc2ccn3ncc(-c4cccc(NC(=O)c5ccccc5)c4)c3n2)CC1 [Compound 28]
IC50 ratio PbCDPK1/PfCDPK1 (PbCDPK1): 3.8 | pIC50 (PbCDPK1; ATP at Km, n = 2): 6.82 | IC50 ratio PvCDPK1/PfCDPK1 (PvCDPK1): 0.6 | pIC50 (PvCDPK1; ATP at Km, n = 2): 7.62 | pIC50 (PfCDPK1 [1]; [5]): 7.40

CC(C)CCNc1ccc(-c2cnn3ccc(NC4CCN(C)C4)nc23)cn1 (centres unmarked) [Compound 41]
IC50 ratio PbCDPK1/PfCDPK1 (PbCDPK1): 2.8 | pIC50 (PbCDPK1; ATP at Km, n = 2): 6.69 | IC50 ratio PvCDPK1/PfCDPK1 (PvCDPK1): 0.9 | pIC50 (PvCDPK1; ATP at Km, n = 2): 7.17 | pIC50 (PfCDPK1 [1]; [5]): 7.14

O=C(NCc1cccc(N2CCCC2)c1)c1ccc(-n2cnc3cccnc32)cc1 [Compound 17]
IC50 ratio (IC50 with 1 mM ATP/IC50 with 30 μM ATP) (PfCDPK1 [1]; Rh-ParM): 27 | pIC50 (PfCDPK1 [1]; [6]): 7.29 | pIC50 (PfCDPK1 [1]; [7]): 5.86

COc1ccc(NC(=O)CSc2nccn(-c3ccc(OC)cc3)c2=O)cc1 [Compound 23]
IC50 ratio (IC50 with 1 mM ATP/IC50 with 30 μM ATP) (PfCDPK1 [1]; Rh-ParM): >3 | pIC50 (PfCDPK1 [1]; [6]): 4.40 | pIC50 (PfCDPK1 [1]; [7]): < 4.00

CN(C(=O)c1cc(COc2ccc(-n3ccnc3)cc2)on1)C1CCCCC1 [Compound 20]
IC50 ratio (IC50 with 1 mM ATP/IC50 with 30 μM ATP) (PfCDPK1 [1]; Rh-ParM): 44 | pIC50 (PfCDPK1 [1]; [6]): 6.14 | pIC50 (PfCDPK1 [1]; [7]): 4.50

CC(C)Oc1ccc(CNC(=O)c2ccc(-n3cnc4cccnc43)cc2)cc1 [Compound 18]
IC50 ratio (IC50 with 1 mM ATP/IC50 with 30 μM ATP) (PfCDPK1 [1]; Rh-ParM): 53 | pIC50 (PfCDPK1 [1]; [6]): 7.07 | pIC50 (PfCDPK1 [1]; [7]): 5.34

CC(=O)Nc1cccc(-c2cnc3ccc(NCCc4cccnc4)nn23)c1 [Compound 11]
IC50 ratio (ATP depletion/radiometric assay) (PfCDPK1 [2]): 3.0 | pIC50 (PfCDPK1 [2]): 7.66 | pIC50 (PfCDPK1 [3]): 7.19 | IC50 ratio (IC50 with 1 mM ATP/IC50 with 30 μM ATP) (PfCDPK1 [1]; Rh-ParM): 28 | pIC50 (PfCDPK1 [1]; [6]): 7.31 | pIC50 (PfCDPK1 [1]; [7]): 5.86

Fc1cccnc1Nc1ccc(-c2cnc3ccc(NC4CCC(N5CCCC5)CC4)nn23)cn1 (centres unmarked) [Compound 4]
pIC50 (PbCDPK1; n = 3): 7.37 | mlogD [4]: 2.8 | pIC50 (PvCDPK1; n = 3): > 8.00

c1nc(NCC2CC2)ncc1-c1cnc2ccc(NC3CCNCC3)nn12 [Compound 40]
IC50 ratio PbCDPK1/PfCDPK1 (PbCDPK1): 4.8 | pIC50 (PbCDPK1; ATP at Km, n = 2): 6.60 | IC50 ratio PvCDPK1/PfCDPK1 (PvCDPK1): 0.9 | pIC50 (PvCDPK1; ATP at Km, n = 2): 7.32 | pIC50 (PfCDPK1 [1]; [5]): 7.28

CCc1ccccc1NC(=O)CSc1nccn(-c2ccc(OC)cc2)c1=O [Compound 22]
IC50 ratio (IC50 with 1 mM ATP/IC50 with 30 μM ATP) (PfCDPK1 [1]; Rh-ParM): >3 | pIC50 (PfCDPK1 [1]; [6]): 4.47 | pIC50 (PfCDPK1 [1]; [7]): < 4.00

COc1ccc(-n2ccnc(SCC(=O)Nc3ccc(C)cc3C)c2=O)cc1 [Compound 24]
IC50 ratio (IC50 with 1 mM ATP/IC50 with 30 μM ATP) (PfCDPK1 [1]; Rh-ParM): >3 | pIC50 (PfCDPK1 [1]; [6]): 4.51 | pIC50 (PfCDPK1 [1]; [7]): < 4.00

COc1ccc2ncc(-c3ccc(C(=O)NCc4ccccc4)cc3)n2n1 [Compound 12]
IC50 ratio (ATP depletion/radiometric assay) (PfCDPK1 [2]): 5.9 | pIC50 (PfCDPK1 [2]): 7.47 | pIC50 (PfCDPK1 [3]): 6.70 | IC50 ratio (IC50 with 1 mM ATP/IC50 with 30 μM ATP) (PfCDPK1 [1]; Rh-ParM): 37 | pIC50 (PfCDPK1 [1]; [6]): 6.97 | pIC50 (PfCDPK1 [1]; [7]): 5.41

CN1CCC(Nc2ccc3ncc(-c4ccc(Nc5ncccc5F)cc4)n3n2)CC1 [Compound 3]
mlogD [4]: 3.2 | pIC50 (PvCDPK1; n = 3): > 8.00

CC(=O)Nc1cccc(-c2cnn3ccc(NCCc4cccnc4)nc23)c1 [Compound 14]
IC50 ratio (ATP depletion/radiometric assay) (PfCDPK1 [2]): 3.5 | pIC50 (PfCDPK1 [2]): 7.82 | pIC50 (PfCDPK1 [3]): 7.28 | IC50 ratio (IC50 with 1 mM ATP/IC50 with 30 μM ATP) (PfCDPK1 [1]; Rh-ParM): 27 | pIC50 (PfCDPK1 [1]; [6]): 7.55 | pIC50 (PfCDPK1 [1]; [7]): 6.13
